Results from US7135466B2 (Kirin Beer Kabushiki Kaisha, priority 1999, dated 2006).
Read-outs that look alike come from different tables or passages of the source. Blank lines part the entries; values can stand above or below the compound they belong to.

Key:
PDGF-Ra = molecular target: T1, PDGF-Ra (Homo sapiens, UniProt P16234); test: Inhibitory activity against PDGF-Ra phosphorylation by PDGF-AA stimulation using G292; format: cell-based; details: for IC50: > means inhibition at indicated concentration not more than 50%, < and << not less than 50%, read-out: PDGF (E) IC50; for inhibition at 0.1 µM: G292, at 100 nM, read-out: PDGF (E) inhibition (%) at 100 nM
T1 construct: host or cells: G-292 human osteosarcoma cells
T1 sequence (P16234 24-1089): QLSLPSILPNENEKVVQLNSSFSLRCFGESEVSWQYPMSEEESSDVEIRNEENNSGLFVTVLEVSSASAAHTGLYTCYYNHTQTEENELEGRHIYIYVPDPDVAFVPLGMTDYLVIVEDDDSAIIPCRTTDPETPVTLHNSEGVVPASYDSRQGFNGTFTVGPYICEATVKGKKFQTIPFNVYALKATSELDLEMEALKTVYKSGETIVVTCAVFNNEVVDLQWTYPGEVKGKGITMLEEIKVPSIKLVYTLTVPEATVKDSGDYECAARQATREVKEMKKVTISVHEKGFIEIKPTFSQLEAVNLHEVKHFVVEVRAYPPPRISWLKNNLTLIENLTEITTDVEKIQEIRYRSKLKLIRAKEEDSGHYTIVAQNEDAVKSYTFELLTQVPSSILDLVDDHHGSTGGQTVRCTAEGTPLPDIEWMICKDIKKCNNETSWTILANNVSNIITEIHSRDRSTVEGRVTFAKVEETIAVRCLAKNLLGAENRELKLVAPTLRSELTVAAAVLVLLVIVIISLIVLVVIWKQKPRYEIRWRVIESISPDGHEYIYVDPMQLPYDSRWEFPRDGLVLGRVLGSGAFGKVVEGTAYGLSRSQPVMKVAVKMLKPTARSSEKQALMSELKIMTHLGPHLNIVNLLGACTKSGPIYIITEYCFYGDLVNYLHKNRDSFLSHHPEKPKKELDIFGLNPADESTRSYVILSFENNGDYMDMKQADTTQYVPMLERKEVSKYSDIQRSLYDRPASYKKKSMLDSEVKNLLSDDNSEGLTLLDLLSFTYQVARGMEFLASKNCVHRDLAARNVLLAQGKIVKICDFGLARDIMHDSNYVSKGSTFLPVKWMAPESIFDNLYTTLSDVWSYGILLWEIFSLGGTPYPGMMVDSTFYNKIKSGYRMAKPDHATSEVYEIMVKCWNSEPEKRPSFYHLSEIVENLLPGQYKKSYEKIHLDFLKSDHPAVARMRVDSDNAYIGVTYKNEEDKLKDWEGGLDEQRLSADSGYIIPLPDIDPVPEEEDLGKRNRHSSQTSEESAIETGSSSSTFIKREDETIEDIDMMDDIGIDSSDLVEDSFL
Summary of the method: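 Cells seeded in low-serum medium are exposed to test compound for one hour, then PDGF-AA (50 ng/ml) triggers receptor phosphorylation for 5 min at 37 °C. Phospho-PDGF-Ra in solubilized cells is quantified by anti-phosphotyrosine capture ELISA at 450 nm.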

c-kit = molecular target: T2, c-kit (Homo sapiens, UniProt P10721); test: Inhibitory activity against c-kit autophosphorylation (MO7e cells, h-SCF); format: cell-based; details: for IC50: MO7e cells, read-out: c-kit IC50; for inhibition at 1 µM: Mo7e, at 1000 nM
T2 construct: MO7e (human megakaryocytic leukemia cell line) which had been arrested for 20 hr; endogenous in cells; host or cells: MO7e human megakaryocytic leukemia cell line
T2 sequence (P10721 26-976): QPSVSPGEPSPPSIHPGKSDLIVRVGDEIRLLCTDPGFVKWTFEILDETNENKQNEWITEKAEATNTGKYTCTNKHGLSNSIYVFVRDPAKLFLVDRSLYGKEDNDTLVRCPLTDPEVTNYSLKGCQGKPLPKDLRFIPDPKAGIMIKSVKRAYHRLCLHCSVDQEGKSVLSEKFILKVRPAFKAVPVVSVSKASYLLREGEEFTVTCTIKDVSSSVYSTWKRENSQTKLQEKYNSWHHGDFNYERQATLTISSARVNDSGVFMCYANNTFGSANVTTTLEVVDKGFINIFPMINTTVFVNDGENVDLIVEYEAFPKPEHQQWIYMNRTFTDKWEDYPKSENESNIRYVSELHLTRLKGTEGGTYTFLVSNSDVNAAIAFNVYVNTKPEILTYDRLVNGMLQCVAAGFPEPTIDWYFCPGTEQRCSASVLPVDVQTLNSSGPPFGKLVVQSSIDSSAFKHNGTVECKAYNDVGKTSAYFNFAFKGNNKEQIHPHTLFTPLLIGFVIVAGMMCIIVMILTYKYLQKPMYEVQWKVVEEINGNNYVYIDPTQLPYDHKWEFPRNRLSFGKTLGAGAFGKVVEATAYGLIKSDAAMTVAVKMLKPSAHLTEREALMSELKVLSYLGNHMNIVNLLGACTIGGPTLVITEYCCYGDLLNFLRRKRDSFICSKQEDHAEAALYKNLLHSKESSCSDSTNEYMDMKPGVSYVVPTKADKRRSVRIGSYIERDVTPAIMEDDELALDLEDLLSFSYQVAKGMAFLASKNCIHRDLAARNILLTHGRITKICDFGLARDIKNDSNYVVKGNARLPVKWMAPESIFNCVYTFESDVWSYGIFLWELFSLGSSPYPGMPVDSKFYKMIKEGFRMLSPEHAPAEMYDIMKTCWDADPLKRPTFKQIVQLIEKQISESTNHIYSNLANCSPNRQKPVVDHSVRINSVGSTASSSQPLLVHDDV
Summary of the method: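 MO7e human megakaryocytic leukemia cells, arrested 20 hr, treated with compound 1 hr, then stimulated with 50 ng/ml h-SCF for 5 min and lysed. Lysates captured on immobilized anti-phosphotyrosine antibody, detected with anti-c-kit primary and HRP secondary antibody; absorbance at 450 nm.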

[1] = figure in parentheses in >100( )
[2] = figure within parentheses in >100( )
[3] = figure within parentheses in −( ) or >1000( )

Structure (SMILES): CCCC(CC)OC(=O)Nc1ccc(Oc2ccnc3cc(OC)c(OC)cc23)c(C)c1C (centres unmarked) [Example 277, 1-Ethylbutyl N-{4-[(6,7-dimethoxy-4-quinolyl)oxy]-2,3-dimethylphenyl}carbamate]
- IC50 (PDGF-Ra; Pharmacological Test Example 1): 10 nM
- IC50 (c-kit; h-SCF 50 ng/ml): 53 nM

Structure (SMILES): COc1cc2nccc(Oc3cc(C)c(NC(=O)OCCN4CCOCC4)cc3C)c2cc1OC [Example 307, 2-Morpholinoethyl N-{4-[(6,7-dimethoxy-4-quinolyl)oxy]-2,5-dimethylphenyl}carbamate]
- inhibition at 0.1 µM (PDGF-Ra; [1]): 49%
- IC50 (PDGF-Ra; Pharmacological Test Example 1): > 100 nM
- IC50 (c-kit; h-SCF 50 ng/ml): 165 nM

Structure (SMILES): COc1cc2ncnc(Oc3ccc(NC(=S)NCCN(C)C)cc3)c2cc1OC [Example 529, N-{4-[(6,7-Dimethoxy-4-quinazolinyl)oxy]phenyl}-N′-(2-dimethylaminoethyl) thiourea]
- IC50 (PDGF-Ra): > 100 nM
- inhibition at 0.1 µM (PDGF-Ra; [2]): 38%
- inhibition at 1 µM (c-kit; [3]): 8%

Structure (SMILES): COc1cccc(C(C)OC(=O)Nc2ccc(Oc3ncnc4cc(OC)c(OC)cc34)cc2Cl)c1 (centres unmarked) [Example 56, 1-(3-Methoxyphenyl)ethyl N-{2-chloro-4-[(6,7-dimethoxy-4-quinazolinyl)oxy]phenyl}carbamate]
- IC50 (PDGF-Ra; Pharmacological Test Example 1): 11 nM
- IC50 (c-kit; h-SCF 50 ng/ml): 774 nM

Structure (SMILES): COc1cc2nccc(Oc3ccc(NC(=O)OC(C)c4ccc(C)cc4)cc3)c2cc1OC (centres unmarked) [Example 132, 1-(4-Methylphenyl)ethyl N-{4-[(6,7-dimethoxy-4-quinolyl)oxy]phenyl}carbamate]
- IC50 (PDGF-Ra; Pharmacological Test Example 1): 26 nM
- IC50 (c-kit; h-SCF 50 ng/ml): 301 nM

Structure (SMILES): COc1cc2nccc(Oc3ccc(NC(=O)OCCCc4ccccc4)cc3)c2cc1OC [Example 376, 3-Phenylpropyl N-{4-[(6,7-dimethoxy-4-quinolyl)oxy]phenyl}carbamate]
- IC50 (PDGF-Ra; Pharmacological Test Example 1): < 10 nM
- IC50 (c-kit; h-SCF 50 ng/ml): 41 nM

Structure (SMILES): COc1cc2nccc(Oc3cc(C)c(NC(=O)OCc4ccc(C(C)(C)C)cc4)cc3C)c2cc1OC [Example 59, 4-(Tert-butyl)benzyl N-{4-[(6,7-dimethoxy-4-quinolyl)oxy]-2,5-dimethylphenyl}carbamate]
- IC50 (PDGF-Ra; Pharmacological Test Example 1): 57 nM
- inhibition at 1 µM (c-kit; figure in parentheses in −( )): 33%

Structure (SMILES): COc1cc2nccc(Oc3ccc(NC(=S)NC(=O)Cc4cccc5ccccc45)cc3Cl)c2cc1OC [Example 708, N-{3-Chloro-4-[(6,7-dimethoxy-4-quinolyl)oxy]phenyl}-N′-[2-(1-naphthyl)acetyl]thiourea]
- IC50 (PDGF-Ra): 51 nM
- IC50 (c-kit; 50 ng/ml h-SCF): 348 nM

Structure (SMILES): COc1cc2nccc(Oc3ccc(NC(=O)OCc4ccc(Cl)cc4)c(C)c3C)c2cc1OC [Example 237, 4-Chlorobenzyl N-{4-[(6,7-dimethoxy-4-quinolyl)oxy]-2,3-dimethylphenyl}carbamate]
- IC50 (PDGF-Ra; Pharmacological Test Example 1): 6 nM
- IC50 (c-kit; h-SCF 50 ng/ml): 42 nM

Structure (SMILES): COc1cc2ncnc(Oc3ccc(NC(=O)NC4CCN(Cc5ccc(C(C)(C)C)cc5)C4)c([N+](=O)[O-])c3)c2cc1OC (centres unmarked) [Example 584, N-{1-[4-(Tert-butyl)benzyl]tetrahydro-1H-3-pyrrolyl}-N′-{4-[(6,7-dimethoxy-4-quinazolinyl)oxy]-2-nitrophenyl}urea]
- IC50 (PDGF-Ra): > 100 nM
- inhibition at 0.1 µM (PDGF-Ra; [2]): 13%
- inhibition at 1 µM (c-kit; [3]): 13%

Structure (SMILES): COc1cc(Oc2ncnc3cc(OC)c(OC)cc23)ccc1NC(=O)OCc1ccccc1Cl [Example 499, 2-Chlorobenzyl N-{4-[(6,7-dimethoxy-4-quinazolinyl)oxy]-2-methoxyphenyl}carbamate]
- IC50 (PDGF-Ra): < 10 nM
- IC50 (c-kit; 50 ng/ml h-SCF): 98 nM

Structure (SMILES): COc1cc2ncnc(Oc3ccc(NC(=O)OCCCc4ccccc4)c(Cl)c3)c2cc1OC [Example 379, 3-Phenylpropyl N-{2-chloro-4-[(6,7-dimethoxy-4-quinazolinyl)oxy]phenyl}carbamate]
- IC50 (PDGF-Ra; Pharmacological Test Example 1): 11 nM
- IC50 (c-kit; h-SCF 50 ng/ml): 624 nM

Structure (SMILES): COc1cc2nccc(Oc3ccc(NC(=S)NCCCN4CCCCC4C)c(C)c3C)c2cc1OC (centres unmarked) [Example 549, N-{4-[(6,7-Dimethoxy-4-quinolyl)oxy]-2,3-dimethylphenyl}-N′-[3-(2-methylpiperidinyl)propyl]thiourea]
- IC50 (PDGF-Ra): 62 nM
- IC50 (c-kit; 50 ng/ml h-SCF): 681 nM

Structure (SMILES): CCN(CC)CCNC(=O)Nc1ccc(Oc2ncnc3cc(OC)c(OC)cc23)cc1Cl [Example 645, N-{2-Chloro-4-[(6,7-dimethoxy-4-quinazolinyl)oxy]phenyl}-N′-[2-(diethylamino)ethyl]urea]
- IC50 (PDGF-Ra): 23 nM
- inhibition at 1 µM (c-kit; [3]): 32%

Structure (SMILES): COc1cc2nccc(Oc3ccc(NC(=O)OCCCSc4ccc(C(C)(C)C)cc4)cc3)c2cc1OC [Example 72]
- IC50 (PDGF-Ra; Pharmacological Test Example 1): 36 nM
- IC50 (c-kit; h-SCF 50 ng/ml): 387 nM

Structure (SMILES): CCCC(CCN1CCCCC1)OC(=O)Nc1ccc(Oc2ncnc3cc(OC)c(OC)cc23)cc1 (centres unmarked) [Example 448, 1-(2-Piperidinoethyl)butyl N-{4-[(6,7-dimethoxy-4-quinazolinyl)oxy]phenyl}carbamate]
- IC50 (PDGF-Ra): > 100 nM
- inhibition at 0.1 µM (PDGF-Ra; [2]): 39%
- inhibition at 1 µM (c-kit; [3]): 25%

Structure (SMILES): COc1cc2ncnc(Oc3ccc(NC(=S)NC(=O)CC4CCCCC4)cc3)c2cc1OC [Example 705, N-(2-Cyclohexylacetyl)-N′-{4-[(6,7-dimethoxy-4-quinazolinyl)oxy]phenyl}thiourea]
- IC50 (PDGF-Ra): < 10 nM
- IC50 (c-kit; 50 ng/ml h-SCF): 147 nM

Structure (SMILES): COc1cc2nccc(Oc3ccc(NC(=O)NC4CCN(Cc5ccc(C(C)(C)C)cc5)C4)cc3)c2cc1OC (centres unmarked) [Example 582, N-{1-[4-(Tert-butyl)benzyl]tetrahydro-1H-3-pyrrolyl}-N′-{4-[(6,7-dimethoxy-4-quinolyl)oxy]phenyl}urea]
- IC50 (PDGF-Ra): > 100 nM
- inhibition at 0.1 µM (PDGF-Ra; [2]): 20%
- inhibition at 1 µM (c-kit; [3]): 29%

The remaining lines, values ahead:

- IC50 (PDGF-Ra): 5 nM
- IC50 (c-kit; 50 ng/ml h-SCF): 336 nM
Structure (SMILES): COc1cc2nccc(Oc3ccc(OCCCOc4ccccc4OC)cc3)c2cc1OC [Example 795, 6,7-Dimethoxy-4-{4-[3-(2-methoxy-phenoxy)propoxy]phenoxy}quinoline]

- IC50 (PDGF-Ra): 51 nM
- IC50 (c-kit; h-SCF stimulation): 192 nM
Structure (SMILES): COc1cc2nccc(Oc3ccc(NC(=S)NC(=O)CCC4CCCC4)cc3)c2cc1OC [Example 1131, N-(3-Cyclopentylpropanoyl)-N′-{4-[(6,7-dimethoxy-4-quinolyl)oxy]phenyl}thiourea]

- IC50 (PDGF-Ra): 43 nM
- inhibition at 1 µM (c-kit; figure in parentheses in −( )): 13%
Structure (SMILES): COc1cc2nccc(Oc3ccc(NC(=S)NC(=O)c4ccc(CN5CCOCC5)cc4)cc3)c2cc1OC [Example 1153, N-{4-[(6,7-Dimethoxy-4-quinolyl)oxy]phenyl}-N′-[4-(morpholinomethyl)benzoyl]thiourea]

- IC50 (PDGF-Ra): 35 nM
- IC50 (c-kit; h-SCF stimulation): 430 nM
Structure (SMILES): COc1cc2nccc(Oc3ccc(NC(=S)NC(=O)c4ccccc4C)c([N+](=O)[O-])c3)c2cc1OC [Example 925, N-{4-[(6,7-Dimethoxy-4-quinolyl)oxy]-2-nitrophenyl}-N′-(2-methylbenzoyl)thiourea]

- IC50 (PDGF-Ra): < 10 nM
- IC50 (c-kit; h-SCF stimulation): 416 nM
Structure (SMILES): COc1ccccc1CCC(=O)NC(=S)Nc1ccc(Oc2ncnc3cc(OC)c(OC)cc23)cc1 [Example 1141, N-{4-[(6,7-Dimethoxy-4-quinazolinyl)oxy]phenyl}-N′-[3-(2-methoxyphenyl)propanoyl]thiourea]

- IC50 (PDGF-Ra): < 10 nM
- IC50 (c-kit; h-SCF stimulation): 146 nM
Structure (SMILES): COc1cc2ncnc(Oc3ccc(NC(=S)NC(=O)CCC4CCCC4)cc3)c2cc1OC [Example 1132, N-(3-Cyclopentylpropanoyl)-N′-{4-[(6,7-dimethoxy-4-quinazolinyl)oxy]phenyl}thiourea]

- IC50 (PDGF-Ra): < 10 nM
- IC50 (c-kit; h-SCF stimulation): 480 nM
Structure (SMILES): COc1cc2ncnc(Oc3ccc(NC(=S)NC(=O)C4CCCCC4)cc3)c2cc1OC [Example 1180, N-Cyclohexylcarbonyl-N′-{4-[(6,7-dimethoxy-4-quinazolinyl)oxy]phenyl}thiourea]

- IC50 (PDGF-Ra): 28 nM
- inhibition at 1 µM (c-kit; figure in parentheses in −( )): 30%
Structure (SMILES): COc1cc2ncnc(Oc3ccc(NC(=S)NC(=O)C(C)Oc4ccccc4Cl)cc3)c2cc1OC (centres unmarked) [Example 1144, N-[2-(2-Chlorophenoxy)propanoyl]-N′-{4-[(6,7-dimethoxy-4-quinazolinyl)oxy]phenyl}thiourea]

- IC50 (PDGF-Ra): 16 nM
- IC50 (c-kit; h-SCF stimulation): 312 nM
Structure (SMILES): COc1cc2nccc(Oc3ccc(NC(=S)NC(=O)C4CC4c4ccccc4)cc3)c2cc1OC (centres unmarked) [Example 1055, N-{4-[(6,7-Dimethoxy-4-quinolyl)oxy]phenyl}-N′-[(2-phenylcyclopropyl)carbonyl]thiourea]

- IC50 (PDGF-Ra): 37 nM
- inhibition at 1 µM (c-kit; [3]): 20%
Structure (SMILES): COc1cc2ncnc(Oc3ccc(OCC(=O)N4CCC(Cc5ccccc5)CC4)cc3)c2cc1OC [Example 804, 1-(4-Benzylpiperidino)-2-{4-[(6,7-dimethoxy-4-quinazolinyl)oxy]phenoxy}-1-ethanone]

- IC50 (PDGF-Ra): 6 nM
- IC50 (c-kit; 50 ng/ml h-SCF): 335 nM
Structure (SMILES): COc1cccc(OCCCOc2ccc(Oc3ccnc4cc(OC)c(OC)cc34)cc2)c1 [Example 793, 6,7-Dimethoxy-4-{4-[3-(3-methoxyphenoxy)propoxy]phenoxy}quinoline]

- IC50 (PDGF-Ra): > 100 nM
- inhibition at 0.1 µM (PDGF-Ra; [1]): 33%
- inhibition at 1 µM (c-kit; figure in parentheses in −( )): 20%
Structure (SMILES): COc1cc2nccc(Oc3cc(C)c(NCCOc4c(C)cccc4C)cc3C)c2cc1OC [Example 895, N-{4-[(6,7-Dimethoxy-4-quinolyl)oxy]-2,5-dimethylphenyl}-N-[2-(2,6-dimethylphenoxy)ethyl]amine]

- IC50 (PDGF-Ra): 14 nM
- IC50 (c-kit; h-SCF stimulation): 337 nM
Structure (SMILES): COc1cc2nccc(Oc3ccc(NC(=S)NC(=O)CCC4CCCC4)cc3Cl)c2cc1OC [Example 1030, N-{3-Chloro-4-[(6,7-dimethoxy-4-quinolyl)oxy]phenyl}-N′-(3-cyclopentylpropanoyl)thiourea]
